Experimental data published in the NIST ThermoML archive (doi:10.1016/j.tca.2014.03.027).

Legend:
[1] = molar heat capacity at constant pressure; settings: 298.15 K; 101.33 kPa; Liquid; Small sample (50 mg) DSC
[2] = 298.15 K; 101.33 kPa; Liquid; Vibrating tube method
[3] = xn = mol fraction of the nth substance listed; settings: 101 kPa, Liquid, Small sample (50 mg) DSC

NCc1ccccc1 [benzylamine]
Settings	mass density [kg/m3]	molar heat capacity at constant pressure [J/K/mol]
[1]	–	206.74
[2]	978.337	–

NCc1ccccc1 [benzylamine] + CCCCCCC
[3], 293.15 K
Settings	excess molar heat capacity [J/K/mol]
x1 = 0.1982	0.78
x1 = 0.2473	1.66
x1 = 0.2989	3.35
x1 = 0.3496	4.17
x1 = 0.3734	4.88
x1 = 0.3986	5.87
x1 = 0.4976	6.51
x1 = 0.5988	5.47
x1 = 0.6983	3.47
x1 = 0.7991	1.46

NCc1ccccc1 [benzylamine] + CCCCCO
excess molar heat capacity [J/K/mol], [3]
Settings	293.15 K	298.15 K	308.15 K
x2 = 0.0495	2.15	2.31	2.12
x2 = 0.1528	5.18	5.79	5.71
x2 = 0.2765	8.64	8.73	8.42
x2 = 0.2967	9.27	9.48	8.89
x2 = 0.4512	12.51	12.28	11.2
x2 = 0.4994	13.7	13.25	12.08
x2 = 0.6006	13.71	13.13	11.91
x2 = 0.6516	12.63	12.04	10.9
x2 = 0.7019	11.57	10.98	9.9
x2 = 0.7998	9.04	8.54	7.76
x2 = 0.8493	7.39	7.06	6.31
x2 = 0.899	5.41	5.16	4.6
x2 = 0.9505	2.72	2.46	2.3

NCc1ccccc1 [benzylamine] + CCCO
excess molar heat capacity [J/K/mol], [3]
Settings	293.15 K	298.15 K	308.15 K
x2 = 0.0665	1.89	2.55	2.84
x2 = 0.1004	2.96	3.37	3.45
x2 = 0.1986	6.26	6.74	6.5
x2 = 0.2994	9.38	9.67	9.53
x2 = 0.4007	11.35	11.45	11.18
x2 = 0.4477	11.83	11.95	11.58
x2 = 0.5497	13.34	13.25	12.85
x2 = 0.6032	13.04	12.99	12.57
x2 = 0.6515	12.75	12.91	12.84
x2 = 0.6998	12.05	12.14	11.7
x2 = 0.8014	9.42	9.48	9.06
x2 = 0.849	7.29	7.32	7.22
x2 = 0.9003	4.9	5.05	4.75

NCc1ccccc1 [benzylamine] + CO
excess molar heat capacity [J/K/mol], [3]
Settings	293.15 K	298.15 K	308.15 K
x2 = 0.0537	1.16	1.26	1.59
x2 = 0.1106	2.61	2.84	3.36
x2 = 0.2041	5.02	5.43	6.08
x2 = 0.2963	7.9	8.16	8.87
x2 = 0.3518	9.32	9.77	10.2
x2 = 0.397	10.86	11.3	11.89
x2 = 0.4966	12.24	12.88	13.26
x2 = 0.5512	12.66	13.17	13.67
x2 = 0.5987	12.63	12.99	13.38
x2 = 0.6991	10.63	11.13	11.55
x2 = 0.7484	9.18	9.49	10
x2 = 0.7988	7.43	7.67	8.28
x2 = 0.849	4.92	5.29	5.72
x2 = 0.9009	3.22	3.49	3.8

CCCCCCC [heptane]
Settings	molar heat capacity at constant pressure [J/K/mol]
[1]	223.91

CO [methanol]
Settings	molar heat capacity at constant pressure [J/K/mol]
[1]	80.81

CCCCCO [pentan-1-ol]
Settings	molar heat capacity at constant pressure [J/K/mol]
[1]	206.67

CCCO [propan-1-ol]
Settings	molar heat capacity at constant pressure [J/K/mol]
[1]	143.41
